Measured values reported in PubChem BioAssay (NCI).
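Five concentrations, 48 hours, 96-well plates. GI50 is the concentration that inhibits growth by half. TGI marks complete inhibition of growth.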

Legend:
Assay in all cases: NCI tumour cell line growth inhibition, 48 h
A498 renal = test system: A498 renal
CAKI-1 renal = test system: CAKI-1 renal
HL-60(TB) leukemia = test system: HL-60(TB) leukemia
HOP-92 NSCLC = test system: HOP-92 NSCLC
LOX IMVI melanoma = test system: LOX IMVI melanoma
NCI-H23 lung = test system: NCI-H23 lung
NCI-H522 lung = test system: NCI-H522 lung
NCI/ADR-RES ovarian = test system: NCI/ADR-RES ovarian
OVCAR-8 ovarian = test system: OVCAR-8 ovarian
SK-MEL-5 melanoma = test system: SK-MEL-5 melanoma

Work on `CCCCCCN(CCCCCC)C(=S)N/N=C(\C)c1ccccn1` yielded a TGI (A498 renal) of 9.29 µM, a TGI (CAKI-1 renal) of 2.68 µM and a TGI (HL-60(TB) leukemia) of 2.3 µM. The TGI (HOP-92 NSCLC) was 6.43 µM, the TGI (LOX IMVI melanoma) was 2.59 µM and the TGI (NCI-H23 lung) was 3.27 µM. For the same molecule, the TGI (NCI-H522 lung) was 2.7 µM, the TGI (NCI/ADR-RES ovarian) was 4.27 µM and the TGI (OVCAR-8 ovarian) was 3.38 µM. The TGI (SK-MEL-5 melanoma) was 2.57 µM.
`CCCCCCCCCCCCCCCCCCOc1ccccc1CC(=O)NCC[N+]1(C)CCOCC1` was tested, and the GI50 (A498 renal) was 13.4 µM, the TGI (A498 renal) was 44 µM and the GI50 (CAKI-1 renal) was 18.4 µM. It also gave a TGI (CAKI-1 renal) of 38.3 µM, a GI50 (HOP-92 NSCLC) of 1.03 µM and a TGI (HOP-92 NSCLC) of 3.78 µM. The GI50 (LOX IMVI melanoma) was 3.51 µM, the TGI (LOX IMVI melanoma) was 42.4 µM and the GI50 (NCI-H23 lung) was 3.03 µM. It also gave a TGI (NCI-H23 lung) of 14.2 µM, a GI50 (NCI-H522 lung) of 1.95 µM and a TGI (NCI-H522 lung) of 5.05 µM. The GI50 (NCI/ADR-RES ovarian) was 18.3 µM, the TGI (NCI/ADR-RES ovarian) was 56.8 µM and the GI50 (OVCAR-8 ovarian) was 5.56 µM. The TGI (OVCAR-8 ovarian) was 29.9 µM, the GI50 (SK-MEL-5 melanoma) was 3 µM and the TGI (SK-MEL-5 melanoma) was 16.1 µM.
With `C[n+]1cc2cc(O)c(O)cc2c2ccc3cc(O)c(O)cc3c21` the TGI (A498 renal) was 11.8 µM, the TGI (CAKI-1 renal) was over 37.3 µM and the TGI (HOP-92 NSCLC) was 11.5 µM. For the same molecule, the TGI (LOX IMVI melanoma) was 18.3 µM, the TGI (NCI-H23 lung) was 18.3 µM and the TGI (NCI-H522 lung) was 3.43 µM. It also gave a TGI (NCI/ADR-RES ovarian) of 6.67 µM, a TGI (OVCAR-8 ovarian) of 11.4 µM and a TGI (SK-MEL-5 melanoma) of over 54.8 µM.
Work on `COc1ccc(N=Nc2c(-c3c(OC)cc4occc4c3OC)[nH]c(=O)c(C#N)c2C)cc1` yielded a TGI (CAKI-1 renal) of over 100 µM, a TGI (HL-60(TB) leukemia) of over 100 µM and a TGI (HOP-92 NSCLC) of over 100 µM. For the same molecule, the TGI (LOX IMVI melanoma) was over 100 µM, the TGI (NCI-H23 lung) was over 100 µM and the TGI (NCI-H522 lung) was over 100 µM. For the same molecule, the TGI (NCI/ADR-RES ovarian) was over 100 µM, the TGI (OVCAR-8 ovarian) was over 100 µM and the TGI (SK-MEL-5 melanoma) was over 100 µM.
For `O=C(/C=C/c1ccc(Cl)cc1)Oc1ccc(C=C2CCC/C(=C\c3ccc(OC(=O)/C=C/c4ccc(Cl)cc4)cc3)C2=O)cc1`, the TGI (A498 renal) was over 100 µM, the TGI (CAKI-1 renal) was over 100 µM and the TGI (HOP-92 NSCLC) was over 100 µM. For the same molecule, the TGI (LOX IMVI melanoma) was over 100 µM, the TGI (NCI-H23 lung) was over 100 µM and the TGI (NCI-H522 lung) was over 100 µM. For the same molecule, the TGI (NCI/ADR-RES ovarian) was over 100 µM, the TGI (OVCAR-8 ovarian) was over 100 µM and the TGI (SK-MEL-5 melanoma) was over 100 µM.
Molecule `CCc1c(O)cc(=O)oc1-c1ccc(OC)c(OC)c1` has a TGI (A498 renal) of over 100 µM, a TGI (CAKI-1 renal) of over 100 µM and a TGI (HOP-92 NSCLC) of over 100 µM. For the same molecule, the TGI (LOX IMVI melanoma) was over 100 µM, the TGI (NCI-H23 lung) was over 100 µM and the TGI (NCI-H522 lung) was over 100 µM. The TGI (NCI/ADR-RES ovarian) was over 100 µM, the TGI (OVCAR-8 ovarian) was over 100 µM and the TGI (SK-MEL-5 melanoma) was over 100 µM.
Molecule `Cc1ccc2c(c1C)C(=O)C1(Cc3cc4c(cc3C1=O)CCC4)C2` (configuration not stated) has a TGI (A498 renal) of over 100 µM, a TGI (CAKI-1 renal) of over 100 µM and a TGI (HL-60(TB) leukemia) of over 100 µM. For the same molecule, the TGI (HOP-92 NSCLC) was over 100 µM, the TGI (NCI-H23 lung) was over 100 µM and the TGI (NCI-H522 lung) was over 100 µM. For the same molecule, the TGI (NCI/ADR-RES ovarian) was over 100 µM, the TGI (OVCAR-8 ovarian) was over 100 µM and the TGI (SK-MEL-5 melanoma) was over 100 µM.
Work on `CCCCI(O)OS(=O)(=O)c1ccc(C)cc1` yielded a TGI (A498 renal) of over 100 µM, a TGI (CAKI-1 renal) of over 100 µM and a TGI (HOP-92 NSCLC) of over 100 µM. For the same molecule, the TGI (LOX IMVI melanoma) was 30.8 µM, the TGI (NCI-H23 lung) was over 100 µM and the TGI (NCI-H522 lung) was 48.9 µM. It also gave a TGI (NCI/ADR-RES ovarian) of over 100 µM, a TGI (OVCAR-8 ovarian) of over 100 µM and a TGI (SK-MEL-5 melanoma) of over 100 µM.
Molecule `Clc1cccc(-c2sc(-c3cccs3)cc2Cc2cccs2)c1` has a TGI (CAKI-1 renal) of over 10 µM, a TGI (HL-60(TB) leukemia) of over 10 µM and a TGI (HOP-92 NSCLC) of over 10 µM. It also gave a TGI (LOX IMVI melanoma) of over 10 µM, a TGI (NCI-H23 lung) of over 10 µM and a TGI (NCI-H522 lung) of over 10 µM. For the same molecule, the TGI (NCI/ADR-RES ovarian) was over 10 µM, the TGI (OVCAR-8 ovarian) was over 10 µM and the TGI (SK-MEL-5 melanoma) was over 10 µM.
With `O=c1oc2ccc3ccccc3c2cc1-c1cn2ccsc2n1` the TGI (CAKI-1 renal) was 59 µM, the TGI (HL-60(TB) leukemia) was 51.7 µM and the TGI (HOP-92 NSCLC) was 30 µM. For the same molecule, the TGI (LOX IMVI melanoma) was 31.7 µM, the TGI (NCI-H23 lung) was 92 µM and the TGI (NCI-H522 lung) was 36.8 µM. The TGI (NCI/ADR-RES ovarian) was 96.2 µM, the TGI (OVCAR-8 ovarian) was 41.2 µM and the TGI (SK-MEL-5 melanoma) was 56.5 µM.
Molecule `CSCC[C@@H](NC(=O)[C@H](CC(C)C)NC(=O)C(Cc1cnc[nH]1)NC(=O)CNC(=O)[C@@H](NC(=O)[C@H](C)NC(=O)[C@H](Cc1c[nH]c2ccccc12)NC(=O)[C@H](CCC(N)=O)NC(=O)[C@@H](N)CC(N)=O)C(C)C)C(N)=O` (some centres not stated) has a TGI (A498 renal) of over 100 µM, a TGI (HL-60(TB) leukemia) of over 100 µM and a TGI (HOP-92 NSCLC) of over 100 µM. It also gave a TGI (LOX IMVI melanoma) of over 100 µM, a TGI (NCI-H23 lung) of over 100 µM and a TGI (NCI-H522 lung) of over 100 µM. The TGI (NCI/ADR-RES ovarian) was over 100 µM, the TGI (OVCAR-8 ovarian) was over 100 µM and the TGI (SK-MEL-5 melanoma) was over 100 µM.
Work on `CCOC(=O)c1c(N2CCCC2)[nH]c(=O)c(C(c2ccc(OC)cc2)c2c(O)c(C(=O)OCC)c(N3CCCC3)[nH]c2=O)c1O` yielded a TGI (A498 renal) of over 100 µM, a TGI (CAKI-1 renal) of 71.1 µM and a TGI (HOP-92 NSCLC) of 58.6 µM. For the same molecule, the TGI (LOX IMVI melanoma) was over 100 µM, the TGI (NCI-H23 lung) was over 100 µM and the TGI (NCI-H522 lung) was over 100 µM. The TGI (NCI/ADR-RES ovarian) was over 100 µM, the TGI (OVCAR-8 ovarian) was over 100 µM and the TGI (SK-MEL-5 melanoma) was over 100 µM.
`CC(C)C(Br)CCC1=CCC(Br)(Br)C1` (configuration not stated) gave a TGI (A498 renal) of 32.8 µM, a TGI (CAKI-1 renal) of 33.7 µM and a TGI (HL-60(TB) leukemia) of over 100 µM. The TGI (HOP-92 NSCLC) was 19.5 µM, the TGI (LOX IMVI melanoma) was 3.05 µM and the TGI (NCI-H23 lung) was 21.5 µM. For the same molecule, the TGI (NCI-H522 lung) was 6.81 µM, the TGI (NCI/ADR-RES ovarian) was 62.1 µM and the TGI (SK-MEL-5 melanoma) was 18.3 µM.
`COc1ccc(C)cc1N1C(=O)C2ON(Cc3ccc(CC(N)=O)cc3)C(c3c4ccccc4c(Cl)c4ccccc34)C2C1=O` (configuration not stated) was tested, and the TGI (CAKI-1 renal) was 76.5 µM, the TGI (HL-60(TB) leukemia) was over 100 µM and the TGI (HOP-92 NSCLC) was over 100 µM. For the same molecule, the TGI (LOX IMVI melanoma) was 54.7 µM, the TGI (NCI-H23 lung) was 96.4 µM and the TGI (NCI-H522 lung) was over 100 µM. The TGI (NCI/ADR-RES ovarian) was 76.9 µM and the TGI (OVCAR-8 ovarian) was 84.6 µM.
For `NS(=O)(=O)c1nnc(NC(=O)N(c2ccccc2)c2ccccc2)s1`, the TGI (CAKI-1 renal) was over 100 µM, the TGI (HL-60(TB) leukemia) was 48.2 µM and the TGI (HOP-92 NSCLC) was 53 µM. The TGI (LOX IMVI melanoma) was 40.2 µM, the TGI (NCI-H23 lung) was 58.9 µM and the TGI (NCI-H522 lung) was 40.9 µM. For the same molecule, the TGI (NCI/ADR-RES ovarian) was 44.4 µM, the TGI (OVCAR-8 ovarian) was 51.1 µM and the TGI (SK-MEL-5 melanoma) was 67 µM.
With `CC(C)Oc1cccc(N2C(n3ccnc3)=Nc3ccncc3S2(=O)=O)c1` the TGI (A498 renal) was 31.8 µM, the TGI (CAKI-1 renal) was 28.3 µM and the TGI (HOP-92 NSCLC) was 25.7 µM. For the same molecule, the TGI (LOX IMVI melanoma) was 31.9 µM, the TGI (NCI-H23 lung) was 24.9 µM and the TGI (NCI-H522 lung) was 22 µM. The TGI (NCI/ADR-RES ovarian) was 62 µM, the TGI (OVCAR-8 ovarian) was 40.7 µM and the TGI (SK-MEL-5 melanoma) was 26.3 µM.
`COC(=O)CNC(=O)C(CSC(=O)OCC1c2ccccc2-c2ccccc21)NC(=O)CCC(NC(=O)OCC1c2ccccc2-c2ccccc21)C(=O)OC` (configuration not stated) gave a TGI (CAKI-1 renal) of 19.9 µM, a TGI (HL-60(TB) leukemia) of 46.8 µM and a TGI (HOP-92 NSCLC) of 30.8 µM. The TGI (LOX IMVI melanoma) was 21.1 µM, the TGI (NCI-H23 lung) was 37 µM and the TGI (NCI-H522 lung) was 17 µM. The TGI (NCI/ADR-RES ovarian) was over 100 µM, the TGI (OVCAR-8 ovarian) was 30.4 µM and the TGI (SK-MEL-5 melanoma) was over 100 µM.
